Experimental data reported in patent US12269826B1, “7H-pyrido[4′,3′:4,5]pyrrolo[2,3-c][1,7]naphthyridine compounds as CK2 inhibitors” (KING FAISAL UNIVERSITY, priority 2023, dated 2025).

Columns and labels:
A375 (melanoma) = test: In vitro cytotoxic activity (MTT) assay, A375; assay type: cell-based; settings: Homo sapiens, A-375; cells exposed for 96 hours; 50% inhibition of cell proliferation; read-out: Cytotoxicity activity IC50, A375 (melanoma)
Protocol: (§1) Compounds 1-16 were screened for their in vitro cytotoxic activity utilizing a 3-(4,5-dimethyl-thiazol-2-yl)-2,5-diphenyltetrazolium bromide (MTT) assay against selected cancer human cell lines consisting of PC3 (prostate), HCT116 (colon), A375 (melanoma), H1299 (lung), MIAPaCa-2 (pancreas), HL60 (leukemia), MCF7 (breast), MDA-MB-231 (breast) (T. Mosmann, J. Immunol. Meth., 1983, 65, 55-63). The cells were cultured at 37° C. in RMPI1640 medium supplemented with 10% fetal bovine serum, 50 IU/mL penicillin, and 50 μg/mL streptomycin in a 5% CO2 incubator. All cells were sub-cultured 3 times/week by trypsinisation. Viable cells were seeded and allowed to adhere for 12 h before a test drug was added in 96-well plates at an initial density of 1.0×10^5 cells/mL. Tumor cell lines were separately exposed to various concentrations of the tested compounds followed by incubation at a temperature of 37° C. during 96 hours inside a medium of fresh RMPI 1640. Cells were subsequently incubated at 37° C. using MTT at 0.5 mg/mL during 4 hours. After removal of supernatant, formazan crystals were dissolved in isopropanol and the optical density was measured at 570 nm. CX-4945 was used as a positive control.

HCT116 (colon) = test: In vitro cytotoxic activity (MTT) assay, HCT116; assay type: cell-based; settings: Homo sapiens, HCT-116; cells exposed for 96 hours; 50% inhibition of cell proliferation; read-out: Cytotoxicity activity IC50, HCT116 (colon)
Protocol: as §1

MIAPaCa-2 (pancreas) = test: In vitro cytotoxic activity (MTT) assay, MIAPaCa-2; assay type: cell-based; settings: Homo sapiens, MIA PaCa-2; cells exposed for 96 hours; 50% inhibition of cell proliferation; read-out: Cytotoxicity activity IC50, MIAPaCa-2 (pancreas)
Protocol: as §1

HL60 (leukemia) = test: In vitro cytotoxic activity (MTT) assay, HL60; assay type: cell-based; settings: Homo sapiens, HL-60; cells exposed for 96 hours; 50% inhibition of cell proliferation; read-out: Cytotoxicity activity IC50, HL60 (leukemia)
Protocol: as §1

[1] = biological target: T1, recombinant human CK2 (RRββ-holoenzyme) (Homo sapiens, UniProt P68400); test: CK2 Kinase Assay (33P-ATP, filter plate); assay type: biochemical; settings: final ATP concentration 15 μM; 10 min at 30° C.; read-out: protein kinase CK2 IC50
T1 construct: purchased Millipore
T1 sequence (P68400 whole entry): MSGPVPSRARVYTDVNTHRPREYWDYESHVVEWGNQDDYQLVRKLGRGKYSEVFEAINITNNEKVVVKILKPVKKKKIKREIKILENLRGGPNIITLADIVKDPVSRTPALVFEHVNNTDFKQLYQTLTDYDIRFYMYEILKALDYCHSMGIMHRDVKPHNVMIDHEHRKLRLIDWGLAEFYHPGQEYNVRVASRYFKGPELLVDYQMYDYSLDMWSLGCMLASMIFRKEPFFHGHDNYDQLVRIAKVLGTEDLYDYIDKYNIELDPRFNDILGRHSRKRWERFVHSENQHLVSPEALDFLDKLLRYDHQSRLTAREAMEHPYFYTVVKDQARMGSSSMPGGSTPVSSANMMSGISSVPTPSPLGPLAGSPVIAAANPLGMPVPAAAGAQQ
T1 sequence (P67870 whole entry partner): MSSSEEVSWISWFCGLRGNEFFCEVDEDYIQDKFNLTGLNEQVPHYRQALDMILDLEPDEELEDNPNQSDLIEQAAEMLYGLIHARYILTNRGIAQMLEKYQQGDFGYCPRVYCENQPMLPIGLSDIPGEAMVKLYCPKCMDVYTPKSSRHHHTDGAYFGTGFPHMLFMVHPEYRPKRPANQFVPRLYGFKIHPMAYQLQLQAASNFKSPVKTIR
Protocol: CK2 Kinase Assay was conducted using the protocol as described in Pierre F. et al; J. Med. Chem. 2011, 54, 635-654. The tested compounds in aqueous solution were added at a volume of 10 μL to a reaction mixture comprising 10 μL of assay dilution buffer (ADB; 20 mM MOPS, pH 7.2, 25 mM β-glycerol phosphate, 5 mM EGTA, 1 mM sodium orthovanadate, and 1 mM dithiothreitol), 10 μL of substrate peptide (RRRDDDSDDD, dissolved in ADB at a concentration of 1 mM), 10 μL of recombinant human CK2 (RRββ-holoenzyme, 25 ng dissolved in ADB; Millipore). Reactions were initiated by the addition of 10 μL of ATP solution (90% 75 mMMgCl2, 75 µM ATP (final ATP concentration: 15 μM) dissolved in ADB; 10% [γ-33P] ATP (stock 1 mCi/100 μL; 3000 Ci/mmol (Perkin-Elmer) and maintained for 10 min at 30° C. The reactions were quenched with 100 μL of 0.75% phosphoric acid and then transferred to and filtered through a phosphor cellulose filter plate (Millipore). After washing each well five times with 0.75% phosphoric acid, the plate was dried under vacuum for 5 min and, following the addition of 15 μL of scintillation fluid to each well, the residual radioactivity was measured using a Wallac luminescence counter. The IC50 values were derived from eight concentrations of test inhibitors.

PC3 (prostate) = test: In vitro cytotoxic activity (MTT) assay, PC3; assay type: cell-based; settings: Homo sapiens; cells exposed for 96 hours; 50% inhibition of cell proliferation; read-out: Cytotoxicity activity IC50, PC3 (prostate)
Protocol: as §1

MDA-MB-231 (breast) = test: In vitro cytotoxic activity (MTT) assay, MDA-MB-231; assay type: cell-based; settings: Homo sapiens, cells exposed for 96 hours, 50% inhibition of cell proliferation, read-out: Cytotoxicity activity IC50, MDA-MB-231 (breast)
Protocol: as §1

H1299 (lung) = test: In vitro cytotoxic activity (MTT) assay, H1299; assay type: cell-based; settings: Homo sapiens, NCI-H1299; cells exposed for 96 hours; 50% inhibition of cell proliferation; read-out: Cytotoxicity activity IC50, H1299 (lung)
Protocol: as §1

MCF7 (breast) = test: In vitro cytotoxic activity (MTT) assay, MCF7; assay type: cell-based; settings: Homo sapiens, cells exposed for 96 hours, 50% inhibition of cell proliferation, read-out: Cytotoxicity activity IC50, MCF7 (breast)
Protocol: as §1

- IC50 [1]: 0.295 µM
SMILES: Clc1cccc(Nc2nc3cnccc3c3c2[nH]c2cnccc23)c1 [Compound 1, N-(3-chlorophenyl)-7H-pyrido[4′,3′:4,5]pyrrolo[2,3-c][1,7]naphthyridin-6-amine]
- IC50 (A375 (melanoma)): 4.2 µM
- IC50 (HCT116 (colon)): 1.1 µM
- IC50 (MIAPaCa-2 (pancreas)): 2.8 µM
- IC50 (HL60 (leukemia)): 3.6 µM
- IC50 (PC3 (prostate)): 0.9 µM
- IC50 (MDA-MB-231 (breast)): 4.1 µM
- IC50 (H1299 (lung)): 1.6 µM
- IC50 (MCF7 (breast)): 4.9 µM
